Results reported in PubChem BioAssay (NCI).
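48-hour exposure; five concentrations; linearly interpolated endpoints. TGI: concentration producing complete growth inhibition.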

Experiments:
Assay in all cases: NCI anticancer screen, dose series, 48 h
[1] = system: K-562 leukemia
[2] = system: NCI-H460 lung
[3] = system: COLO 205 colon
[4] = system: MCF7 breast
[5] = system: OVCAR-8 ovarian
[6] = system: SW-620 colon
[7] = system: RXF 393 renal
[8] = system: M14 melanoma
[9] = system: OVCAR-4 ovarian
[10] = system: 786-0 renal
[11] = system: MDA-MB-231 breast
[12] = system: NCI-H23 lung
[13] = system: HCT-116 colon
[14] = system: SN12C renal
[15] = system: SK-MEL-2 melanoma
[16] = system: TK-10 renal
[17] = system: PC-3 prostate
[18] = system: NCI-H226 lung
[19] = system: SNB-75 CNS
[20] = system: SK-MEL-5 melanoma
[21] = system: HT29 colon
[22] = system: MDA-MB-435
[23] = system: EKVX NSCLC
[24] = system: SR leukemia
[25] = system: LOX IMVI melanoma
[26] = system: CCRF-CEM leukemia
[27] = system: HS 578T breast
[28] = system: UO-31 renal
[29] = system: MDA-N
[30] = system: OVCAR-5 ovarian
[31] = system: HL-60(TB) leukemia
[32] = system: T-47D breast
[33] = system: HOP-92 NSCLC
[34] = system: SK-MEL-28 melanoma
[35] = system: UACC-257 melanoma
[36] = system: NCI/ADR-RES ovarian
[37] = system: BT-549 breast
[38] = system: SF-295 CNS
[39] = system: RPMI-8226 leukemia
[40] = system: CAKI-1 renal
[41] = system: SF-539 CNS
[42] = system: OVCAR-3 ovarian
[43] = system: SF-268 CNS
[44] = system: IGROV1 ovarian
[45] = system: SK-OV-3 ovarian
[46] = system: SNB-19 CNS
[47] = system: ACHN renal
[48] = system: A549 NSCLC
[49] = system: A498 renal
[50] = system: MALME-3M melanoma
[51] = system: UACC-62 melanoma
[52] = system: HCC-2998 colon
[53] = system: KM12 colon
[54] = system: HOP-62 NSCLC
[55] = system: HCT-15 colon
[56] = system: DU-145 prostate
[57] = system: U251 CNS
[58] = system: NCI-H522 lung
[59] = system: MOLT-4 leukemia

Measured: TGI

CCn1ncc(Oc2c(Cl)cc(N)cc2Cl)c(Cl)c1=O
46.9 µM: [3]
58.5 µM: [21]
91.1 µM: [37]
79.6 µM: [29]
67.6 µM: [27]
77.9 µM: [45]
40.7 µM: [42]
80.7 µM: [24]
65 µM: [20]
80.8 µM: [13]
63.6 µM: [38]
not listed: [58] | [59]
> 100 µM: all other assays above

NC(Cc1c[nH]c2ccccc12)P(=O)(O)O (stereo not given)
not listed: [25] | [33]
> 100 µM: all other assays above

Cc1n[nH]c(=O)n1-c1cccnc1
not listed: [15] | [45] | [51]
> 100 µM: all other assays above

COC1/C=C/C(C)C(OC)CC(O)/C=C/C(C)C(C(C)C(OC)C(C)CCC(=O)C(C)C(C/C=C/N(C)C=O)OC)OC(=O)/C=C/C=C(\C)CC(OC)CC2=CC(=O)O[C@@H](C(C)C(OC)C1)[C@H]2O (stereo not given in full)
0.265 µM: [7]
> 5.01 µM: [21]
0.41 µM: [13]
0.905 µM: [45]
1.32 µM: [23] | [47]
0.498 µM: [37]
> 12.4 µM: [6]
0.317 µM: [50]
1.09 µM: [17]
0.477 µM: [2]
0.418 µM: [3]
0.178 µM: [29]
> 25 µM: [1] | [14] | [24] | [31]
0.175 µM: [8]
0.274 µM: [20]
0.131 µM: [49]
0.504 µM: [51]
1.21 µM: [9]
1.06 µM: [12]
0.776 µM: [5]
0.503 µM: [10]
1.86 µM: [30]
0.199 µM: [57]
0.653 µM: [58]
0.423 µM: [44]
> 5.72 µM: [43]
3.7 µM: [39]
6.27 µM: [32]
0.409 µM: [4]
0.239 µM: [46]
1.05 µM: [22]
0.32 µM: [19]
0.261 µM: [27]
0.318 µM: [35]
0.62 µM: [55]
> 6.79 µM: [56]
0.434 µM: [41]
0.362 µM: [38]
1.1 µM: [48]
0.3 µM: [28]
0.785 µM: [16]
0.106 µM: [11]
1.14 µM: [36]
1.35 µM: [52]
0.385 µM: [34]
0.168 µM: [33]
0.0875 µM: [40]
0.16 µM: [54]
> 6.11 µM: [53]

CC(C)(C)N/N=C(\C(=O)Nc1ccc([N+](=O)[O-])cc1[N+](=O)[O-])c1nc2ccc([N+](=O)[O-])cc2[nH]c1=O
not listed: [16] | [54]
> 100 µM: all other assays above
